# Assays:
# [1] = target: PIK3CA (human) (UniProt P42336); assay: Inhibition of PIK3CA Kinase Activity
# [2] = target: PIK3CG (human) (UniProt P48736); assay: Inhibition of PIK3CG Kinase Activity
# Chain of PIK3CG (human) (P48736 whole entry, looked up): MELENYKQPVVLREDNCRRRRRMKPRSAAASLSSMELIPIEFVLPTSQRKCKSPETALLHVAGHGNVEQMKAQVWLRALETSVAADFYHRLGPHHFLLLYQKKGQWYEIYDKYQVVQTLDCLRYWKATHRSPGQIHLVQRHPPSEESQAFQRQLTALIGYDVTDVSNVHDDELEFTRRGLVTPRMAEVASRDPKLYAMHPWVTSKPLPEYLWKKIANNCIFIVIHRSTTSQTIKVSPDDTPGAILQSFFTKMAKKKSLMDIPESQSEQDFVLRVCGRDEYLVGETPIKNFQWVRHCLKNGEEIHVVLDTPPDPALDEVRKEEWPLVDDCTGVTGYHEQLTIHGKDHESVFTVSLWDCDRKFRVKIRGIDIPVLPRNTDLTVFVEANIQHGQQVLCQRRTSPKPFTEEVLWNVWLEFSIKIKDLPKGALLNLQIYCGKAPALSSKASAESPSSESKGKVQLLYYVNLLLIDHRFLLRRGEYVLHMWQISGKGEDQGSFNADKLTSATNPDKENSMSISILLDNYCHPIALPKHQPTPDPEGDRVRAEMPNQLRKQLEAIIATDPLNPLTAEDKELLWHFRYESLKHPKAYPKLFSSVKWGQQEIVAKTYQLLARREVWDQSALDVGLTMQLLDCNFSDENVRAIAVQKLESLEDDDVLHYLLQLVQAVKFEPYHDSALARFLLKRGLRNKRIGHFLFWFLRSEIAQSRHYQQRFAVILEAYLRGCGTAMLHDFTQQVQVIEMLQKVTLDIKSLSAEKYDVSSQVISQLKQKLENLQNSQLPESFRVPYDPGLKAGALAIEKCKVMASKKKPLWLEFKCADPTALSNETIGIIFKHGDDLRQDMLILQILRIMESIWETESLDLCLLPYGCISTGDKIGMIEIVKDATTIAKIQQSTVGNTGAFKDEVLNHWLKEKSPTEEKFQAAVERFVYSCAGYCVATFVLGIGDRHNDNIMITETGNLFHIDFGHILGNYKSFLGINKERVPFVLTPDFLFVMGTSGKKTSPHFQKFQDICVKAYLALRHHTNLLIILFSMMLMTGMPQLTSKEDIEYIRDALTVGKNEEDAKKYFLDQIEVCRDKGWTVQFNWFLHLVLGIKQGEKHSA
# Chain of PIK3CA (human) (P42336 whole entry, looked up): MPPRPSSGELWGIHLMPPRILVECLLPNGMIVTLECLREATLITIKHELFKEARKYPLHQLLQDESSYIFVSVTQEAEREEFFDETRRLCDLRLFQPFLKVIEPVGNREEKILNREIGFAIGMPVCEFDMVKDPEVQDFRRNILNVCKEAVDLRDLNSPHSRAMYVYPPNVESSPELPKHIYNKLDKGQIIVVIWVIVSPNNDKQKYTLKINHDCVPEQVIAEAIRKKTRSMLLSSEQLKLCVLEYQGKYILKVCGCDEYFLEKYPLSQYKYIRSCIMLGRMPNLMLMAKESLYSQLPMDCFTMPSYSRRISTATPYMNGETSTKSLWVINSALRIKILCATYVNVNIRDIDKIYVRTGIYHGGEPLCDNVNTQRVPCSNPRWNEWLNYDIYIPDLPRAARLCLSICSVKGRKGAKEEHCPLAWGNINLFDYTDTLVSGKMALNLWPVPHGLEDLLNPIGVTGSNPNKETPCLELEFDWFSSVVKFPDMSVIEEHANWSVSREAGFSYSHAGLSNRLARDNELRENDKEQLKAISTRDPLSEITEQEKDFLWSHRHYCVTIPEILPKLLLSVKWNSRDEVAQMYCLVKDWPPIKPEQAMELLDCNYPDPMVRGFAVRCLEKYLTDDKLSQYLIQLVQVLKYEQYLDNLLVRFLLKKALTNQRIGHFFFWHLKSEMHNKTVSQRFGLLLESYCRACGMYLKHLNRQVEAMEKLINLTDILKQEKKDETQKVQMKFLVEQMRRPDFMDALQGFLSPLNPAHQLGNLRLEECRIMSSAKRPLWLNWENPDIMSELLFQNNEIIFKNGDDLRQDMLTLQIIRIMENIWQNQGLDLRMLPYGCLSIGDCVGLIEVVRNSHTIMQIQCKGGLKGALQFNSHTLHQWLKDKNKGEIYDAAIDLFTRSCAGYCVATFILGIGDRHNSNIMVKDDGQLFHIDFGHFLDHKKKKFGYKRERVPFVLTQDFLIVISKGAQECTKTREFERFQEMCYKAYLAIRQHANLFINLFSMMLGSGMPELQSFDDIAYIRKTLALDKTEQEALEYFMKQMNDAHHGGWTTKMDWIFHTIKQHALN
SMILES,IC50 [1] [µM],IC50 [2] [µM]
Oc1cccc(-c2nc(N3CCOCC3)c3nnn(C4CCN(Cc5ccc[nH]5)CC4)c3n2)c1,0.062,0.426
CCn1nnc2c(N3CCOCC3)nc(-c3ccc(NC(=O)Nc4ccc(CN5CCN(C)CC5)cc4)cc3)nc21,0.557,0.00135
CC(C)n1nnc2c(N3CCOCC3)nc(-c3ccc(NC(=O)Nc4ccc(N)cc4)cc3)nc21,0.473,–
CCn1nnc2c(N3CCOCC3)nc(-c3ccc(NC(=O)Nc4ccc([N+](=O)[O-])cc4)cc3)nc21,0.49,–
CCn1nnc2c(N3CCOCC3)nc(-c3ccc(NC(=O)Nc4ccc(NC(=O)N5CCCN(C)CC5)cc4)cc3)nc21,0.6,0.00165
CCn1nnc2c(N3CCOCC3)nc(-c3ccc(NC(=O)Nc4ccc(NCc5cccnc5)cc4)cc3)nc21,0.551,0.0033
CCn1nnc2c(N3CCOCC3)nc(-c3ccc(NC(=O)Nc4ccc(NC(=O)NCCN5CCCC5)cc4)cc3)nc21,0.601,0.0017
Oc1cccc(-c2nc(N3CCOCC3)c3nnn(CCCCN4CCN(Cc5ccccc5)CC4)c3n2)c1,0.116,0.216
CC(C)n1nnc2c(N3CCOCC3)nc(-c3ccc(NC(=O)Nc4ccc(NS(C)(=O)=O)cc4)cc3)nc21,0.552,–
CCn1nnc2c(N3CCOC[C@@H]3C)nc(-c3ccc(NC(=O)Nc4ccc(C(=O)NCCN5CCCC5)cc4)cc3)nc21,0.599,–
CCn1nnc2c(N3CCOCC3)nc(-c3ccc(NC(=O)Nc4ccc(NC(=O)NCCN5CCN(C)CC5)cc4)cc3)nc21,0.629,0.0018
CCN1CCN(C(=O)Nc2ccc(NC(=O)Nc3ccc(-c4nc(N5CCOCC5)c5nnn(CC)c5n4)cc3)cc2)CC1,0.6,0.0009
CCn1nnc2c(N3CCOCC3)nc(-c3ccc(NC(=O)Nc4ccc(C(=O)Nc5cccnc5)cc4)cc3)nc21,0.565,0.00185
CC(C)(C)OC(=O)N1CC(n2nnc3c(N4CCOCC4)nc(-c4ccc(NC(=O)Nc5ccccc5)cc4)nc32)C1,0.058,0.79
CCn1nnc2c(N3CCOCC3)nc(-c3ccc(NC(=O)Nc4ccc(NC(=O)c5ccncc5)cc4)cc3)nc21,0.565,0.00185
CCn1nnc2c(N3CCOCC3)nc(-c3ccc(NC(=O)Nc4ccc(NCc5ccncc5)cc4)cc3)nc21,0.551,–

SMILES,IC50 [1] [µM],IC50 [2] [µM]
CCn1nnc2c(N3CCOCC3)nc(-c3ccc(NC(=O)Nc4ccc(NC(=O)N5CCN(C)CC5)cc4)cc3)nc21,0.586,0.00185
CCn1nnc2c(N3CCOCC3)nc(-c3ccc(NC(=O)Nc4ccc(NC(=O)NC5CCN(C)CC5)cc4)cc3)nc21,0.601,0.0017
CC(C)n1nnc2c(N3CCOCC3)nc(-c3ccc(NC(=O)Nc4ccc(C(=O)NCCN(C)C)cc4)cc3)nc21,0.572,0.002
CCn1nnc2c(N3CCOCC3)nc(-c3ccc(NC(=O)Nc4ccc(N)cc4)cc3)nc21,0.46,0.00733
CCn1nnc2c(N3CCOCC3)nc(-c3ccc(NC(=O)Nc4ccc(NCc5ccc(F)nc5)cc4)cc3)nc21,0.569,–
CCn1nnc2c(N3CCOCC3)nc(-c3ccc(NC(=O)Nc4ccc(NC(=O)NCCN(C)C)cc4)cc3)nc21,0.574,0.00165
CCn1nnc2c(N3CCOCC3)nc(-c3ccc(NC(=O)Nc4ccc(NC(=O)c5cccc(N(C)C)c5)cc4)cc3)nc21,0.607,0.00183
CCn1nnc2c(N3CCOC[C@@H]3C)nc(-c3ccc(NC(=O)Nc4ccc(C(=O)NCCN5CCCCC5)cc4)cc3)nc21,0.613,–
CCn1nnc2c(N3CCOCC3)nc(-c3ccc(NC(=O)Nc4ccc(NC(=O)N(C)CCN(C)C)cc4)cc3)nc21,0.588,0.00165
CC(C)n1nnc2c(N3CCOCC3)nc(-c3ccc(NC(=O)Nc4ccc(N5CCN(C)CC5)cc4)cc3)nc21,0.558,–
CCn1nnc2c(N3CCOCC3)nc(-c3ccc(NC(=O)Nc4ccc(C(=O)OC)nc4)cc3)nc21,0.504,–
CCn1nnc2c(N3CCOC[C@@H]3C)nc(-c3ccc(NC(=O)Nc4ccc(C(=O)N(C)CCN(C)C)cc4)cc3)nc21,0.587,0.0022
CCn1nnc2c(N3CCOCC3)nc(-c3ccc(NC(=O)Nc4ccc(NC(=O)N5CCNCC5)cc4)cc3)nc21,0.573,0.0017
CCn1nnc2c(N3CCOCC3)nc(-c3ccc(NC(=O)Nc4ccc(NCc5ccc(OC)nc5)cc4)cc3)nc21,0.581,–
CCn1nnc2c(N3CCOC[C@@H]3C)nc(-c3ccc(NC(=O)Nc4ccc(C(=O)N5CCN(C)CC5)cc4)cc3)nc21,0.585,0.00215
CCn1nnc2c(N3CCOCC3)nc(-c3ccc(NC(=O)Nc4ccc(NC(=O)CN(C)C)cc4)cc3)nc21,0.574,0.00133

# Further compounds by falling IC50 [1], results first:
IC50 [1] [µM],IC50 [2] [µM],SMILES
0.651,0.00095,CN(C)CCNC(=O)c1ccc(NC(=O)Nc2ccc(-c3nc(N4CCOCC4)c4nnn(-c5cccc(C(=O)O)c5)c4n3)cc2)cc1
0.65,0.0008,CN(C)CCNC(=O)c1ccc(NC(=O)Nc2ccc(-c3nc(N4CCOCC4)c4nnn(-c5cccc(C(N)=O)c5)c4n3)cc2)cc1
0.64,0.00075,CCn1nnc2c(N3CCOCC3)nc(-c3ccc(NC(=O)Nc4ccc(NC(=O)N5CCC(N6CCCC6)CC5)cc4)cc3)nc21
0.614,0.00145,CCn1nnc2c(N3CCOCC3)nc(-c3ccc(NC(=O)Nc4ccc(NC(=O)N5CCC(N(C)C)CC5)cc4)cc3)nc21
0.613,–,CCn1nnc2c(N3CCOC[C@@H]3C)nc(-c3ccc(NC(=O)Nc4ccc(C(=O)N5CCC(N(C)C)CC5)cc4)cc3)nc21
0.594,0.0033,CCn1nnc2c(N3CCOCC3)nc(-c3ccc(NC(=O)Nc4ccc(NC(=O)NCc5ccccn5)cc4)cc3)nc21
0.585,–,CC(C)n1nnc2c(N3CCOCC3)nc(-c3ccc(NC(=O)Nc4ccc(C(=O)N5CCN(C)CC5)cc4)cc3)nc21
0.573,0.00185,CCn1nnc2c(N3CCOC[C@@H]3C)nc(-c3ccc(NC(=O)Nc4ccc(C(=O)NCCN(C)C)cc4)cc3)nc21
0.573,–,CCn1nnc2c(N3CCOCC3)nc(-c3ccc(NC(=O)Nc4ccc(NC(=O)N5CCOCC5)cc4)cc3)nc21
0.572,–,CCn1nnc2c(N3CCOCC3)nc(-c3ccc(NC(=O)Nc4ccc(C(=O)N5CCN(C)CC5)nc4)cc3)nc21
0.561,–,CCn1nnc2c(N3CCOCC3)nc(-c3ccc(NC(=O)Nc4ccc(NC(=O)NCCOC)cc4)cc3)nc21
0.56,0.00185,CCn1nnc2c(N3CCOCC3)nc(-c3ccc(NC(=O)Nc4ccc(C(=O)N(C)CCN(C)C)nc4)cc3)nc21
0.543,–,CCn1nnc2c(N3CCOCC3)nc(-c3ccc(NC(=O)Nc4ccc(N5CCN(C)CC5)cc4)cc3)nc21
0.531,0.008,CCn1nnc2c(N3CCOCC3)nc(-c3ccc(NC(=O)Nc4ccc(C(=O)NN(C)C)cc4)cc3)nc21
0.504,–,CC(C)n1nnc2c(N3CCOCC3)nc(-c3ccc(NC(=O)Nc4ccc([N+](=O)[O-])cc4)cc3)nc21
0.49,0.0033,CCn1nnc2c(N3CCOCC3)nc(-c3ccc(NC(=O)Nc4ccc(C(=O)O)nc4)cc3)nc21
0.0053,0.02,O=C(Nc1ccncc1)Nc1ccc(-c2nc(N3CCOCC3)c3nnn(CCO)c3n2)cc1
